Reference: patent US20220009906A1, “ISOINDOLIN-1-ONE DERIVATIVES USEFUL AS GRK2 INHIBITORS” (priority 2020, published 2022)
pIC50: −log10 of the molar value.

biological target: T1, GRK2 (Homo sapiens, UniProt P25098); experiment: hGRK2 LANCE Ultra In Vitro Assay; format: biochemical; details: not given
T1 sequence (P25098 1-689): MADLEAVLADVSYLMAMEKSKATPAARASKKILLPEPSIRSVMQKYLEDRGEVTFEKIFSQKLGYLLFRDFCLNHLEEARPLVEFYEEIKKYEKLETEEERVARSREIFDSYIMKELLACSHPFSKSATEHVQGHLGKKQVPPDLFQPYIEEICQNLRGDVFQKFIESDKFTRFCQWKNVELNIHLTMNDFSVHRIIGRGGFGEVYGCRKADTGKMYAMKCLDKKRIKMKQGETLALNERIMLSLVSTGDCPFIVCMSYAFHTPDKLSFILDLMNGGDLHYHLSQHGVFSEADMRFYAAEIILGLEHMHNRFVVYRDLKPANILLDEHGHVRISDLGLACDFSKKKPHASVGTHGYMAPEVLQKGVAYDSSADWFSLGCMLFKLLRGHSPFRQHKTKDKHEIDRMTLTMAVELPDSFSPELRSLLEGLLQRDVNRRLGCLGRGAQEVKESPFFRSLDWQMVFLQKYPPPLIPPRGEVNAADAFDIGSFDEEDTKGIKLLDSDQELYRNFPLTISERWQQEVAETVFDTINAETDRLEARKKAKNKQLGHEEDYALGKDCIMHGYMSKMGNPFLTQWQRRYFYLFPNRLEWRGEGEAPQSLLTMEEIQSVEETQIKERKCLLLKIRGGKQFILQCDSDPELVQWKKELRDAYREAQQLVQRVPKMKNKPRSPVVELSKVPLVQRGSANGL
Experimental: hGRK2 LANCE Ultra In Vitro Assay
G-protein coupled receptor kinases (GR Kinases) desensitize activated G-protein coupled receptors (GPCRs), by phosphorylation of cytoplasmic loops or carboxyl-terminal tails of GPCRs. GRK2 is one of the 6 different GR kinases and is implicated in heart failure and diabetes.
This assay is sensitive and requires as low as 10 nM enzyme, in a total volume of 10 μL. In addition, the ATP concentration can be varied over a broad range, without interfering with the assay or changing the assay condition. […] Testing inhibitors routinely at both high and low ATP concentrations also enables identification of potential non-ATP competitive inhibitors.
Paroxetine was used as the reference compound in this assay.
Test compounds were dissolved in DMSO at 1 mM and were 3-fold serial diluted. The compound DMSO solutions were then added (100 nL) into a plate well using an acoustic dispenser. To each well was then added 20 nM GRK2 (5 μL) in assay buffer (20 mM HEPES, pH 7.5, 10 mM MgCl2, 0.001% Tween-20®). The plate was sealed and centrifuged at 1000 rpm for 1 min. The plate and wells containing a mixture of GRK2 and test compound were incubated at ambient temperature for 30 min (prior to initializing the enzymatic reaction).
Enzyme reactions were initiated by the addition of 4.9 μL Substrates/Eu-Ab mix to each well. […] Final concentrations of reagents in the assays were as follows: 20 mM HEPES, pH 7.5; 10 mM MgCl2; 0.001% Tween-20® (w/v); 30 or 600 μM ATP; 200 nM ULight-peptide; 4 nM Eu-Ab; 10 nM GRK2; and 1% DMSO.
The plates were sealed and centrifuged at 1000 rpm for 1 min. For reactions at low ATP concentration (30 μM), reaction mixtures were incubated at ambient temperature for 120 min. For reactions at high ATP concentration (600 μM), reaction mixtures were incubated at ambient temperature for 60 min.
The enzyme reactions were quenched by addition of 10 μL of 12 mM EDTA in 1× LANCE detection solution to each well. The plates were then incubated at ambient temperature for 30 min. Time-resolved fluorescence signal of reactions were read on an EnVision or PHERAstar plate reader with the following parameters: Excitation wavelength=337 nm; emission wavelength (donor)=620 nm; emission wavelength (acceptor)=665 nm.
The raw HTRF data were converted to % active as follows:
% active=(sample−NC)/(PC−NC)*100
where NC is the mean of negative control (reactions without GRK2), and PC is the mean of positive control (reactions with GRK2 but without inhibitor). IC50 values were determined from a 4-parameter fit, using the following equation:
Y=Bottom+(Top−Bottom)/(1+10^((Log IC50−X)*Hill slope))
where X=log10 of the compound concentration.

Structure (SMILES)	pIC50
COc1cccc(CN2C(=O)c3cc(-c4cn[nH]c4)ccc3C23CCCC3C(=O)O)c1 (stereo not drawn) [Compound 110, 2′-(3-methoxybenzyl)-3′-oxo-5′-(1H-pyrazol-4-yl)spiro[cyclopentane-1,1′-isoindoline]-2-carboxylic acid]	6.51

same assay, conditions: Biological Example 1 GRK2 Lancer IC50 (μM), 10 nM GRK2; 30 or 600 μM ATP (not stated which); multiple measurements listed individually

Structure (SMILES)	IC50
COc1cccc(CN2C(=O)c3cc(-c4cn[nH]c4)ccc3C23CCC(C(N)=O)C3)c1 (stereo not drawn) [Compound 108, 2′-(3-methoxybenzyl)-3′-oxo-5′-(1H-pyrazol-4-yl)spiro[cyclopentane-1,1′-isoindoline]-3-carboxamide]	0.004 µM
COC(=O)NC1CCC2(C1)c1ccc(-c3cn[nH]c3)cc1C(=O)N2Cc1cccc(OC)c1 (stereo not drawn) [Compound 109, methyl (2′-(3-methoxybenzyl)-3′-oxo-5′-(1H-pyrazol-4-yl)spiro[cyclopentane-1,1′-isoindolin]-3-yl)carbamate]	0.006 µM
COc1cccc(CN2C(=O)c3cc(-c4cn[nH]c4)ccc3C23CCCC3C(N)=O)c1 (stereo not drawn) [Compound 111, 2′-(3-methoxybenzyl)-3′-oxo-5′-(1H-pyrazol-4-yl)spiro[cyclopentane-1,1′-isoindoline]-2-carboxamide]	0.007 µM
CCOc1cccc([C@H](CO)N2Cc3ccc(-c4cn[nH]c4)cc3C2=O)c1 [Compound 112]	0.306 µM
CCOc1cccc([C@@H](CO)N2Cc3ccc(-c4cn[nH]c4)cc3C2=O)c1 [Compound 114]	0.006 µM
COC(=O)NC1CCCC12c1ccc(-c3cn[nH]c3)cc1C(=O)N2Cc1cccc(OC)c1 (stereo not drawn) [Compound 115, Methyl (2′-(3-methoxybenzyl)-3′-oxo-5′-(1H-pyrazol-4-yl)spiro[cyclopentane-1,1′-isoindolin]-2-yl)carbamate]	0.177 µM
COc1cccc(C(CCC(=O)O)N2Cc3ccc(-c4cn[nH]c4)cc3C2=O)c1 (stereo not drawn) [Compound 117, 4-(3-methoxyphenyl)-4-(1-oxo-6-(1H-pyrazol-4-yl)isoindolin-2-yl)butanoic acid]	0.404 µM
CNC1CCC2(C1)c1ccc(-c3cn[nH]c3)cc1C(=O)N2Cc1cccc(OC)c1 (stereo not drawn) [Compound 118, 2′-(3-methoxybenzyl)-3-(methylamino)-5′-(1H-pyrazol-4-yl)spiro[cyclopentane-1,1′-isoindolin]-3′-one]	< 0.005 µM
O=C1c2cc(-c3cn[nH]c3)ccc2CN1Cc1cccc(-n2cccn2)c1 [Compound 119]	0.113 µM
COc1cccc([C@@H](C)N2Cc3c(cc(-c4cn[nH]c4)cc3-c3cncc(F)c3)C2=O)c1 [Compound 120, (R)-4-(5-fluoropyridin-3-yl)-2-(1-(3-methoxyphenyl)ethyl)-6-(1H-pyrazol-4-yl)isoindolin-1-one]	0.009 µM
COc1cccc([C@@H](C)N2Cc3c(cc(-c4cn[nH]c4)cc3-c3ccncc3)C2=O)c1 [Compound 121, (R)-2-(1-(3-methoxyphenyl)ethyl)-6-(1H-pyrazol-4-yl)-4-(pyridin-4-yl)isoindolin-1-one]	0.01 µM
COc1cccc([C@@H](C)N2C(=O)c3cc(-c4cn[nH]c4)ccc3C23CCCC3)c1 [Compound 122, (R)-2′-(1-(3-methoxyphenyl)ethyl)-5′-(1H-pyrazol-4-yl)spiro[cyclopentane-1,1′-isoindolin]-3′-one]	1.18 µM
COc1cccc(CN2C(=O)c3cc(-c4cn[nH]c4)ccc3C23CCCC3N)c1 (stereo not drawn) [Compound 123, 2-amino-2′-(3-methoxybenzyl)-5′-(1H-pyrazol-4-yl)spiro[cyclopentane-1,1′-isoindolin]-3′-one]	0.015 µM
COc1cccc([C@@H](C)N2Cc3c(cc(-c4cn[nH]c4)cc3-c3cccnc3)C2=O)c1 [Compound 124, (R)-2-(1-(3-methoxyphenyl)ethyl)-6-(1H-pyrazol-4-yl)-4-(pyridin-3-yl)isoindolin-1-one]	0.005 µM
COc1cccc([C@@H](C)N2Cc3c(cc(-c4cn[nH]c4)cc3-c3cccnc3N)C2=O)c1 [Compound 125, (R)-4-(2-aminopyridin-3-yl)-2-(1-(3-methoxyphenyl)ethyl)-6-(1H-pyrazol-4-yl)isoindolin-1-one]	0.022 µM
COc1cncc(-c2cc(-c3cn[nH]c3)cc3c2CN([C@H](C)c2cccc(OC)c2)C3=O)c1 [Compound 126, (R)-2-(1-(3-methoxyphenyl)ethyl)-4-(5-methoxypyridin-3-yl)-6-(1H-pyrazol-4-yl)isoindolin-1-one]	0.024 µM
COc1cccc([C@@H](C)N2Cc3c(cc(-c4cn[nH]c4)cc3-c3ccc(OC)nc3)C2=O)c1 [Compound 127, (R)-2-(1-(3-methoxyphenyl)ethyl)-4-(6-methoxypyridin-3-yl)-6-(1H-pyrazol-4-yl)isoindolin-1-one]	0.047 µM
O=C(N[C@H]1C[C@H]2CC[C@@H]1C2)c1cccc(CN2Cc3ccc(-c4cn[nH]c4)cc3C2=O)c1 [Compound 128]	< 0.005 µM
COc1cccc([C@@H](C)N2Cc3c(cc(-c4cn[nH]c4)cc3-c3ccc(O)cc3)C2=O)c1 [Compound 129, (R)-4-(4-hydroxyphenyl)-2-(1-(3-methoxyphenyl)ethyl)-6-(1H-pyrazol-4-yl)isoindolin-1-one]	0.011 µM
COc1cccc([C@@H](C)N2Cc3c(cc(-c4cn[nH]c4)cc3-c3cncnc3)C2=O)c1 [Compound 130, 2-[(1R)-1-(3-methoxyphenyl)ethyl]-6-(1H-pyrazol-4-yl)-4-pyrimidin-5-yl-isoindolin-1-one]	< 0.005 µM
COc1cccc([C@@H](C)N2Cc3c(cc(-c4cn[nH]c4)cc3-c3cc(C)nc(C)c3)C2=O)c1 [Compound 132, (R)-4-(2,6-dimethylpyridin-4-yl)-2-(1-(3-methoxyphenyl)ethyl)-6-(1H-pyrazol-4-yl)isoindolin-1-one]	0.005 µM
COc1cccc(C(CO)N2Cc3c(cc(-c4cn[nH]c4)cc3-c3ccncc3)C2=O)c1 (stereo not drawn) [Compound 133, 2-(2-Hydroxy-1-(3-methoxyphenyl)ethyl)-6-(1H-pyrazol-4-yl)-4-(pyridin-4-yl)isoindolin-1-one]	0.021 µM
Cc1cnccc1CNC(=O)c1cccc(CN2C(=O)c3cc(-c4cn[nH]c4)ccc3C23CCCC3)c1 [Compound 134, N-((3-methylpyridin-4-yl)methyl)-3-((3′-oxo-5′-(1H-pyrazol-4-yl)spiro[cyclopentane-1,1′-isoindolin]-2′-yl)methyl)benzamide]	0.003 µM
O=C1c2cc(-c3cn[nH]c3)ccc2CN1Cc1cccc(O)c1 [Compound 135]	0.005 µM
CC(=O)Oc1cccc(CN2Cc3ccc(-c4cn[nH]c4)cc3C2=O)c1 [Compound 136]	0.014 µM
O=C(Oc1cccc(CN2Cc3ccc(-c4cn[nH]c4)cc3C2=O)c1)C1CC1 [Compound 137]	0.034 µM
CC(=O)OCC(=O)Oc1cccc(CN2Cc3ccc(-c4cn[nH]c4)cc3C2=O)c1 [Compound 138]	0.002 µM
COc1cccc([C@@H](C)N2Cc3c(cc(-c4cn[nH]c4)cc3-c3cccc(O)c3)C2=O)c1 [Compound 139, (R)-4-(3-hydroxyphenyl)-2-(1-(3-methoxyphenyl)ethyl)-6-(1H-pyrazol-4-yl)isoindolin-1-one]	0.033 µM
COc1cccc(-c2cc(-c3cn[nH]c3)cc3c2CN([C@H](C)c2cccc(OC)c2)C3=O)c1 [Compound 140, (R)-4-(3-methoxyphenyl)-2-(1-(3-methoxyphenyl)ethyl)-6-(1H-pyrazol-4-yl)isoindolin-1-one]	0.265 µM
